We go through 1 compound from article PMC11019550, “Potent Inhibition of E. coli DXP Synthase by a gem-Diaryl Bisubstrate Analog” (ACS Infectious Diseases, 2024).

For one assay, the target named is T1, EcDXPS (Escherichia coli, UniProt P77488).
T1 construct: made in house
The experiment in a line: DXPS-IspC coupled assay, apparent Ki on wildtype EcDXPS. It is filed as biochemical. As for the experimental part:
To determine inhibitor potency, we used the DXPS-DXP reductoisomerae (DXPS-IspC) coupled assay to measure the activity of recombinant purified EcDXPS[24],[25],[31],[44],[50] in the presence of inhibitors. Reactions were initiated by the addition of substrates following a short preincubation of the inhibitor with enzymes, and initial velocities were determined by monitoring reduced nicotinamide adenine dinucleotide phosphate (NADPH) absorbance at 340 nm. Apparent Ki values were determined by fitting initial velocity data to the Morrison equation,[64],[65] which accounts for the tight-binding nature (Ki^app/[E]total < 10)[66] of inhibitors included in this study and allows for rigorous comparison of inhibitor potencies. […] Inhibitor activities were rationalized based on the predictions made from molecular docking of the corresponding PLThDP adducts into the DXPS active site.
All compounds in this study were evaluated as DXPS inhibitors using the DXPS-IspC coupled assay as previously reported.[24] […] The DXPS reaction was initiated by the addition of substrates (50 μM pyruvate and 500 μM D-GAP). The initial rate of depletion of NADPH was monitored at 340 nm and was used to calculate the initial rate of DXP formation in the presence or absence of inhibitor. Initial rates of DXP formation were plotted as a function of [inhibitor], and Ki^app was determined by fitting the data to the Morrison equation (eq 1)[64],[65] in GraphPad Prism. This approach was deemed appropriate as the concentration of free inhibitor cannot be assumed to remain constant for most of these analogs in which Ki^app values approach the concentration of DXPS.[88],[89] Error is reported as standard deviation from three replicates. Active enzyme concentration ([E]T) was determined following Copeland’s method using 8 (Figure S2B).[88]
The coupled assay was initiated by adding 20 μL of a 10× substrate stock to the preincubated E + I mixture to give a final volume of 200 μL. The final concentration of D-GAP was held constant at 500 μM, and [pyruvate] was added to final concentrations between 0 and 250 μM. The initial rate of NADPH depletion in the IspC-coupled reaction was monitored at 340 nm and was used to calculate the initial rate of DXP formation in the presence or absence of inhibitor. Initial rates were plotted as a function of [pyruvate]. […] Model discrimination analysis employing the Akaike information criterion was performed as well as Lineweaver–Burk analysis to determine the mixed model as the best fit. In all cases, error bars represent the standard deviation from three replicates.

Assay [1] has as its target T2, WT EcDXPS (Escherichia coli, UniProt P77488).
T2 construct: made in house
The experiment in a line: Circular dichroism titration (PLThDP formation, apparent KD) on WT EcDXPS. It is filed as binding. The text has this: The X-ray structure obtained from cocrystallization of DrDXPS with 1 (Figure 2) indicates the formation of the PLThDP adduct by reaction of the acetylphosphonate mimic of pyruvate with the C2 carbanion of ThDP. We reasoned that 8 should also engage the pyruvate binding site and react with ThDP to form a PLThDP adduct. Circular dichroism (CD) is a powerful tool that can be used to detect LThDP and LThDP-like adducts on thiamin-dependent enzymes,[56],[67]−[75] including DXPS.[31],[36],[43],[44],[49]−[52],[76] DXPS bound to ThDP (E-ThDP) is characterized by a CD λmin at 320 nm, indicative of the 4′-aminopyrimidine (AP) tautomer of ThDP (Figure 8A). Upon addition of pyruvate to E-ThDP, a new positive signal emerges at 313 nm, indicating the formation of LThDP in its 1′,4′-iminopyrimidine (IP) form. Similarly, upon addition of AP-based inhibitors to E-ThDP, the E-PLThDP adduct is formed, characterized by an increasing, broad CD signal.[69],[77],[78] Determination of apparent KD of PLThDP by plotting the CD signal corresponding to PLThDP versus [MAP] has been used as a proxy for PLThDP affinity.[77],[78] To confirm that 8 reacts with ThDP to form PLThDP in the DXPS active site, the change in CD signal upon addition of 8 (0.25–30 μM) to EcDXPS (30 μM) was measured. […] Plotting the CD signal at 294 nm versus affords a curve that approaches the limiting asymptotes defined by infinitely tight binding (Figure 8C),[79],[80] which is expected for this nanomolar inhibitor under the conditions of high [DXPS] required for this method. Since in this case [DXPS] ≫ KD^app, an accurate determination of KD^app is not possible, and data were fit to a quadratic equation to give an estimated upper limit for the value of KD^app (≤0.04 ± 0.01 μM). Addition of 10 to DXPS also results in an increased, broad CD signal (Figure S7A), indicating PLThDP formation. […]
CD titrations of 8 and 10 onto WT, R99A, and R478A EcDXPS variants were conducted at 25 °C under aerobic conditions in 1.5 mL solutions containing 30 μM EcDXPS in 50 mM HEPES pH 8, 100 mM NaCl, 1 mM MgCl2, and 0.2 mM ThDP. […] The CD signals at 294 nm determined from the difference spectra obtained by subtracting the signal of E-ThDP at 294 nm were plotted as a function of [inhibitor] and fit to (1) the quadratic equation described in eq 2 (8 on WT DXPS), where E is the concentration of DXPS taking into account stoichiometric binding and CDmax is the maximal CD signal, or (2) a one-site specific binding curve (all other experiments) using GraphPad Prism Version 9 to calculate an apparent KD. Experiments were conducted in triplicate and the standard error was calculated. […]
At the conclusion of the titration described above, the CD signal at 313 nm (previously characterized for LThDP) was recorded. […]
(In general: Circular dichroism is the unequal absorption of left and right circularly polarised light.)

The target in the next assay is T3, R99A EcDXPS (Escherichia coli, UniProt P77488, R99A).
T3 construct: made in house
As to the kind of experiment: Circular dichroism titration (PLThDP formation, apparent KD) on R99A EcDXPS. It is filed as binding. As for the experimental part: (§1) CD titrations of 8 and 10 onto WT, R99A, and R478A EcDXPS variants were conducted at 25 °C under aerobic conditions in 1.5 mL solutions containing 30 μM EcDXPS in 50 mM HEPES pH 8, 100 mM NaCl, 1 mM MgCl2, and 0.2 mM ThDP. Scans were obtained from 280 to 400 nm with a 0.5 s averaging time and 1 nm step following a titration of inhibitor (8: 0.25–30 μM on WT, 0.5–30 μM on R99A and R478A; 10 2.5–30 μM on WT, R99A, and R478A), with a 5 min preincubation of inhibitor with DXPS prior to scanning. […] The CD signals at 294 nm determined from the difference spectra obtained by subtracting the signal of E-ThDP at 294 nm were plotted as a function of [inhibitor] and fit to (1) the quadratic equation described in eq 2 (8 on WT DXPS), where E is the concentration of DXPS taking into account stoichiometric binding and CDmax is the maximal CD signal, or (2) a one-site specific binding curve (all other experiments) using GraphPad Prism Version 9 to calculate an apparent KD. Experiments were conducted in triplicate and the standard error was calculated. [drawing 2] 2
(§2) At the conclusion of the titration described above, the CD signal at 313 nm (previously characterized for LThDP) was recorded. Pyruvate (1 mM) was then added to the mixture, and a CD scan of the resulting solution was conducted as described above, to detect shifts in the CD spectrum that may correlate to LThDP formation. Experiments were conducted in triplicate.

The next assay concerns the target T4, R478A EcDXPS (Escherichia coli, UniProt P77488, R478A).
T4 construct: made in house
As to the kind of experiment: Circular dichroism titration (PLThDP formation, apparent KD) on R478A EcDXPS. It is filed as binding. As for the experimental part:
as §1, §2

The target in assay [2] is T2, WT EcDXPS. As to the kind of experiment: Time-dependent inhibition, reaction progress curves on WT EcDXPS. Format: biochemical. The conditions noted are these: 8 at 400 or 800 nM, 10 at 1 or 100 μM. As for the experimental part: To determine if 8 is also a slow-onset inhibitor of DXPS, reaction progress was monitored upon simultaneous addition of substrates (pyruvate and D-GAP) in the presence or absence of inhibitor. In the absence of inhibitor, the reaction progress curve is linear. […] To assess the importance of the carboxyl group of 8, we evaluated descarboxy analog 10 in the same manner.
EcDXPS (100 nM) and IspC (2 μM) were preincubated in enzyme reaction buffer (100 mM HEPES pH 8, 2 mM MgCl2, 5 mM NaCl, 1 mM ThDP, and 200 μM NADPH) with 250 μM D-GAP for 10 min at 25 °C. The reaction was initiated by the addition of pyruvate (1 mM) and inhibitor (400 nM and 800 nM 8; 1 μM and 100 μM 10). The reaction mixture was incubated at 25 °C, and the absorbance of NADPH at 340 nm was monitored. The change in the absorbance of NADPH over time was used to calculate [DXP] (μM) produced over time. Experiments were performed in triplicate.

As to `CC(=O)P(=O)(O)OCCc1cn(C(Cc2ccccc2)Cc2ccccc2)nn1` [Compound 10], the Ki at EcDXPS (read-out: Ki^app) was 11 ± 1 µM. Moreover, the “fold increase in Ki^app relative to 8” value at EcDXPS (relative to compound 8) is on record as roughly 3800 fold. Moreover, the Kd on WT EcDXPS [1] came to 9 ± 1 µM; on R99A EcDXPS, 14.5 ± 0.7 µM; at R478A EcDXPS, 6 ± 1 µM. The “change in PLThDP CD signal upon addition of 1 mM pyruvate” value at WT EcDXPS [1] (WT EcDXPS 30 μM, inhibitor 30 μM) was “CD signal shift and an increase in amplitude”. Moreover, the “time dependence of inhibition (progress curve for DXP formation)” value on WT EcDXPS [2] is given as “linear”.
